Assay results as given in patent US20210179586A1, “SOLID STATE FORMS OF BRANAPLAM AND THEIR PREPARATION” (TEVA PHARMACEUTICALS INTERNATIONAL GMBH, priority 2018, published 2021).
Structures can show the parent of a compound that is named as a salt.

Legend:
[1] = Solid state (polymorphic) stability of crystalline forms on storage, humidity, heat, pressure or grinding; format: physicochemical; conditions: for stability (conversion to any other solid state form): 'stable' as defined in b57: less than 20% conversion at 60% RH/RT or 75% RH/40° C. for at least 1 month, or at 80-100% RH 7 days, 100° C. 30 minutes, 3 Ton 1 minute, strong grinding
Method: As used herein the term “stable” in relation to crystalline Branaplam and salts thereof refers to less than 20%, less than 10%, less than 5%, less than 2%, less than 1%, or less than 0.5% conversion of crystalline Branaplam and salts thereof to any other solid state form of Branaplam when kept in storage for long term stability e.g. 60% RH/RT or 75% RH/40° C. for at least 1 month. Alternatively, crystalline Branaplam and salts thereof are stable when exposed to high humidity e.g. 80-100% RH for 7 days, high temperature e.g. 100° C. for 30 minutes, high mass pressure e.g. 3 Ton for 1 minute or upon strong grinding.

[2] = Hygroscopicity: water absorption at 80% RH for 24 hours at RT, e.g. by TGA; format: physicochemical; conditions: 'non-hygroscopic' as defined in b56: less than 0.2% (w/w) absorption of water at 80% RH for 24 hours at RT
Method: As used herein the term non-hygroscopic in relation to crystalline Branaplam and salts thereof refers to less than 0.2% (w/w) absorption of water by the crystalline Branaplam, when exposed to 80% relative humidity (“RH”) for 24 hours at room temperature (“RT”), as determined, for example, by TGA.

## CC1(C)CC(Oc2ccc(-c3ccc(-c4cn[nH]c4)cc3O)nn2)CC(C)(C)N1 [Branaplam hydrochloride Form C3, Branaplam hydrochloride]
[1]; heating and humidity, b57 gives e.g. 100° C. for 30 minutes, 80-100% RH for 7 days
  stability upon heating and humidity: stable upon heating and humidity

## CC1(C)CC(Oc2ccc(-c3ccc(-c4cn[nH]c4)cc3O)nn2)CC(C)(C)N1 [Branaplam Form B1, Branaplam]
[1]
  stability (conversion to any other solid state form): stable

## CC1(C)CC(Oc2ccc(-c3ccc(-c4cn[nH]c4)cc3O)nn2)CC(C)(C)N1 [Branaplam hydrochloride Form C1, Branaplam hydrochloride]
[1]; hydrochloride
  stability (conversion to any other solid state form): surprisingly stable
[2]
  hygroscopicity: non-hygroscopic
